Measured values: ChEMBL document CHEMBL2390956, “Design, synthesis and evaluation of flavonoid derivatives as potential multifunctional acetylcholinesterase inhibitors against Alzheimer's disease” (Bioorg Med Chem Lett, 2013)
The source made the active and inactive calls. The rule behind the calls is not given here.

Legend:
Cholinesterase = Cholinesterase (Equus caballus, UniProt P81908)
Description: Inhibition of equine serum BuChE using S-butyrylthiocholine iodide as substrate incubated for 6 mins prior to substrate addition measured after 60 to 180 secs by Ellman's method

Acetylcholinesterase = Acetylcholinesterase (Electrophorus electricus, UniProt O42275)
Description: Inhibition of electric eel AChE using acetylthiocholine iodide as substrate incubated for 6 mins prior to substrate addition measured after 60 to 180 secs by Ellman's method

[1] = target: Amyloid-beta precursor protein (Homo sapiens) (UniProt P05067); assay: Inhibition of amyloid beta (1 to 42) (unknown origin) aggregation at 20 uM by thioflavin T based fluorometric assay
Sequence of Amyloid-beta precursor protein (Homo sapiens) (P05067 whole entry): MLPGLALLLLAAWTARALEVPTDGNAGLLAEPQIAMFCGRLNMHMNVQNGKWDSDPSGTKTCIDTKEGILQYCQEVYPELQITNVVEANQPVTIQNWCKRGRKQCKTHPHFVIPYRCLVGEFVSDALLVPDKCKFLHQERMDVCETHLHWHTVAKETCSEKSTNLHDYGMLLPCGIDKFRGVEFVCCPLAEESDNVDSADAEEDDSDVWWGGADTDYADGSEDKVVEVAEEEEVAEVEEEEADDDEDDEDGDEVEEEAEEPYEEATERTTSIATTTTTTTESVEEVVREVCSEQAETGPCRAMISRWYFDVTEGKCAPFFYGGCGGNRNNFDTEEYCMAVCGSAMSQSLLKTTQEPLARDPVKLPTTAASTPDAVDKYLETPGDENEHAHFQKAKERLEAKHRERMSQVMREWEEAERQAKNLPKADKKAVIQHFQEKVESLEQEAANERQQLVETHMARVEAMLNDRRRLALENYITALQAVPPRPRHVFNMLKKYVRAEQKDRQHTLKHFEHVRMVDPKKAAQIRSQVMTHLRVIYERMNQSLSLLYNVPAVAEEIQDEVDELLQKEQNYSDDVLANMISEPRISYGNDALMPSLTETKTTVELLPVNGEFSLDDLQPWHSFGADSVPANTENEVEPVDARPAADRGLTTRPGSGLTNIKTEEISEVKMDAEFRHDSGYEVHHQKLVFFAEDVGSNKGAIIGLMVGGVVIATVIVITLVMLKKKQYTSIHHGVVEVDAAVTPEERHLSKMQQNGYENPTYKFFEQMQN

[2] = target: Acetylcholinesterase (Electrophorus electricus) (UniProt O42275); assay: Ratio of galanthamine IC50 to compound IC50 for electric eel AChE
Sequence of Acetylcholinesterase (Electrophorus electricus) (O42275 24-633 limits assumed): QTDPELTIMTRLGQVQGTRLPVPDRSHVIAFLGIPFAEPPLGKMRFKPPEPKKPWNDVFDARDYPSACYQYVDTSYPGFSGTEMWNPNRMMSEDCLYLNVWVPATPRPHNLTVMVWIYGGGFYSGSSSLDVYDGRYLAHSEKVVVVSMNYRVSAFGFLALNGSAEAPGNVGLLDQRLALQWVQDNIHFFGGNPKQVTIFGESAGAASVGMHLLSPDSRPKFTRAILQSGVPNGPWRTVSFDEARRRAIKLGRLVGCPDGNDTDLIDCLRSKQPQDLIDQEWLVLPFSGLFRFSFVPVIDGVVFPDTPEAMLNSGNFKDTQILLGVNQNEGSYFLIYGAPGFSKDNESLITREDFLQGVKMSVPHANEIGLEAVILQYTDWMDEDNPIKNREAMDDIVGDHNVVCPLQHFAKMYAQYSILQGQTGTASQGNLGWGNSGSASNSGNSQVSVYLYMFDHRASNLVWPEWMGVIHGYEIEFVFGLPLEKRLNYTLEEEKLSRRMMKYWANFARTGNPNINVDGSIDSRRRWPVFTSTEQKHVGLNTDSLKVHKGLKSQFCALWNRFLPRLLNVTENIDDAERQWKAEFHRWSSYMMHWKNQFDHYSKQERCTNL

[3] = target: Acetylcholinesterase (Homo sapiens) (UniProt P22303); assay: Mixed inhibition of AChE (unknown origin) using ATC as substrate assessed as acetylcholine hydrolysis incubated 15 mins prior to substrate addition by Lineweaver-Burk plot analysis
Sequence of Acetylcholinesterase (Homo sapiens) (P22303 whole entry): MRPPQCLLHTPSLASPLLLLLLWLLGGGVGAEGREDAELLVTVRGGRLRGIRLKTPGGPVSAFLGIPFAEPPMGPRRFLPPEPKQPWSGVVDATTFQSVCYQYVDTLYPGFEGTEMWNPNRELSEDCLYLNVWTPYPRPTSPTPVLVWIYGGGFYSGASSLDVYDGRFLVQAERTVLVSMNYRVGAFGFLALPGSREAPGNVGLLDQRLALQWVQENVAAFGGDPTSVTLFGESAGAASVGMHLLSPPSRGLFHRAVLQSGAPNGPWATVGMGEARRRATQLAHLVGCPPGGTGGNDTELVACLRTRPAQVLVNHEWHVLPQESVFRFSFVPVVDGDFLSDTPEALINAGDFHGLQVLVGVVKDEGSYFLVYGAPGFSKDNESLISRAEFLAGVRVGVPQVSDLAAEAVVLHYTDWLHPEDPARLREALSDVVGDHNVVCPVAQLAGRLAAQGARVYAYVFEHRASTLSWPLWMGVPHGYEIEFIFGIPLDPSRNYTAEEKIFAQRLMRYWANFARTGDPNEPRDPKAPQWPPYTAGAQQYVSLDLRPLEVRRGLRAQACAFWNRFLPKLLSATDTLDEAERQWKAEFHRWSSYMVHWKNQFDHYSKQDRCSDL

[4] = target: Acetylcholinesterase (Electrophorus electricus) (UniProt O42275); assay: Ratio of tacrine IC50 to compound IC50 for electric eel AChE
[5] = Metal chelating activity of the compound assessed as formation of iron complex at 35 uM by UV-vis spectrometry; format: functional
[6] = Metal chelating activity of the compound assessed as formation of copper complex at 35 uM by UV-vis spectrometry; format: functional

Sequence of Cholinesterase (P81908 whole entry): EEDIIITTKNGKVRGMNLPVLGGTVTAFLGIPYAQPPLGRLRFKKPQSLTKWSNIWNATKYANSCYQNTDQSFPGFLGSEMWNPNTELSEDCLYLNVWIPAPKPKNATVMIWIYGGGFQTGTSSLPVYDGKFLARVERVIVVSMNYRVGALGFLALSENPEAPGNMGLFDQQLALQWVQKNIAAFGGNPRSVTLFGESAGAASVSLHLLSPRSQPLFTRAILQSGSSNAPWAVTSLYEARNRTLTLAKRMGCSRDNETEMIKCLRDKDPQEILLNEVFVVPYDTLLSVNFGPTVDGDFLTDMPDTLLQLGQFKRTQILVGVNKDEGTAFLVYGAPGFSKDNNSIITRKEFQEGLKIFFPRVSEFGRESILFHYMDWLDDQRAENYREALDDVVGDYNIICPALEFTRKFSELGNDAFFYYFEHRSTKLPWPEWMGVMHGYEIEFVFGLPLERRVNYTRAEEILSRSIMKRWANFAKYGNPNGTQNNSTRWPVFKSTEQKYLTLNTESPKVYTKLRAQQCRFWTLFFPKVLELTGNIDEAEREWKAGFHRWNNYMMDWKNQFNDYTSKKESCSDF
Sequence of Acetylcholinesterase (O42275 whole entry): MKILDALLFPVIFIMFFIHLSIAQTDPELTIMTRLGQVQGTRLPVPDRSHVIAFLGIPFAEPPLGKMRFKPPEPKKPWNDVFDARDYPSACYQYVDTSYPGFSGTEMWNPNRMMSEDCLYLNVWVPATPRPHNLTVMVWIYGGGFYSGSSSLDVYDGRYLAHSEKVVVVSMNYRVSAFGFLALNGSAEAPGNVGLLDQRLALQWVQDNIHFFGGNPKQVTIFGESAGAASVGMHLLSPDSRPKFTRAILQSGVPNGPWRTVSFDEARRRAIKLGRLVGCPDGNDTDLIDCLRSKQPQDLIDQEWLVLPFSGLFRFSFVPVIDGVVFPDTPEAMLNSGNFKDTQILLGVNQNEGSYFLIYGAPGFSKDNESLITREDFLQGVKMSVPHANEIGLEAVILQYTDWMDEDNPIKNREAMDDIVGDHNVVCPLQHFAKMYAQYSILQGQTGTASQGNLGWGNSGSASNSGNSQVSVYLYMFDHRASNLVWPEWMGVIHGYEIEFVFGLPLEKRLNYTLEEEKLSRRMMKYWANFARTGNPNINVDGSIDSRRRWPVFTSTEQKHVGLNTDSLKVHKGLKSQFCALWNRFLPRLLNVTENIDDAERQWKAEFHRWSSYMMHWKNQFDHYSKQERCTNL

Q: With `Cc1c(OCCCCCCN2CCC(O)CC2)ccc2c(=O)cc(-c3ccccc3)oc12` as the compound, how does the IC50 (Cholinesterase) read?
A: 3930 nM

Q: And the IC50 (Acetylcholinesterase)?
A: 3150 nM

Q: What about the inhibition [1] of the same compound?
A: 39%

Q: Which IC50 (Cholinesterase) does the source give for `Cc1c(OCCCCN2CCOCC2)ccc2c(=O)cc(-c3ccccc3)oc12` here?
A: > 100000 nM

Q: And the IC50 (Acetylcholinesterase)?
A: 2880 nM

Q: And the inhibition [1]?
A: 20.4%

Q: Which IC50 (Cholinesterase) does the source give for `Cc1c(OCCCN2CCCCC2C)ccc2c(=O)cc(-c3ccccc3)oc12` (stereo unspecified) here?
A: 5840 nM

Q: And the IC50 (Acetylcholinesterase)?
A: 590 nM

Q: And the inhibition [1]?
A: 41.7%

Q: With `Cc1c(OCCCCCCN2CCCCC2C)ccc2c(=O)cc(-c3ccccc3)oc12` (stereo unspecified) as the compound, how does the IC50 (Cholinesterase) read?
A: 3740 nM

Q: What about the IC50 (Acetylcholinesterase) of the same compound?
A: 1890 nM

Q: What about the inhibition [1] of the same compound?
A: 43.2%

Q: With `Cc1c(OCCCCN(C)C)ccc2c(=O)cc(-c3ccccc3)oc12` as the compound, how does the IC50 (Cholinesterase) read?
A: > 100000 nM

Q: And the IC50 (Acetylcholinesterase)?
A: 328 nM

Q: And the inhibition [1]?
A: 34.3%

Q: Which IC50 (Cholinesterase) does the source give for `Cc1c(OCCN2CCC(O)CC2)ccc2c(=O)cc(-c3ccccc3)oc12` here?
A: 3210 nM

Q: What about the IC50 (Acetylcholinesterase) of the same compound?
A: 1830 nM

Q: What about the inhibition [1] of the same compound?
A: 26.9%

Q: Which results are given for `Cc1c(OCCCCCN2CCCCC2C)ccc2c(=O)cc(-c3ccccc3)oc12` (stereo unspecified)?
A: IC50 (Cholinesterase): 2770 nM; IC50 (Acetylcholinesterase): 216 nM; inhibition [1]: 36.7%

Q: For `COC(=O)[C@@H]1CCCN1CCCCCOc1ccc2c(=O)cc(-c3ccccc3)oc2c1C`, which IC50 (Cholinesterase) is on record?
A: 3930 nM

Q: What about the IC50 (Acetylcholinesterase) of the same compound?
A: 19600 nM

Q: Which IC50 (Cholinesterase) does the source give for `Cc1c(OCCCCN2CCCCC2)ccc2c(=O)cc(-c3ccccc3)oc12` here?
A: > 100000 nM

Q: What about the IC50 (Acetylcholinesterase) of the same compound?
A: 234 nM

Q: And the inhibition [1]?
A: 37.5%

Q: Which results are given for `Cc1c(OCCCCCN2CCCC2)ccc2c(=O)cc(-c3ccccc3)oc12`?
A: IC50 (Cholinesterase): 1910 nM; IC50 (Acetylcholinesterase): 243 nM; inhibition [1]: 39.3%

Q: With `Cc1c(O)ccc2c(=O)cc(-c3ccccc3)oc12` as the compound, how does the IC50 (Cholinesterase) read?
A: > 100000 nM

Q: And the IC50 (Acetylcholinesterase)?
A: 87100 nM

Q: For `Cc1c(OCCCCCCN2CCCC2)ccc2c(=O)cc(-c3ccccc3)oc12`, which IC50 (Cholinesterase) is on record?
A: 3280 nM

Q: What about the IC50 (Acetylcholinesterase) of the same compound?
A: 764 nM

Q: And the inhibition [1]?
A: 38.1%

Q: What does the source list for `Cc1c(OCCCCCN(C)C)ccc2c(=O)cc(-c3ccccc3)oc12`?
A: IC50 (Cholinesterase): 2540 nM; IC50 (Acetylcholinesterase): 210 nM; inhibition [1]: 37.9%

Q: Which IC50 (Cholinesterase) does the source give for `Cc1c(OCCCCCN2CCOCC2)ccc2c(=O)cc(-c3ccccc3)oc12` here?
A: > 100000 nM

Q: And the IC50 (Acetylcholinesterase)?
A: 8630 nM

Q: And the inhibition [1]?
A: 24.6%

Q: What does the source list for `Cc1c(OCCCCN2CCN(C)CC2)ccc2c(=O)cc(-c3ccccc3)oc12`?
A: IC50 (Cholinesterase): 5750 nM; IC50 (Acetylcholinesterase): 1660 nM; inhibition [1]: 31.1%

Q: With `COC(=O)[C@@H]1CCCN1CCCCOc1ccc2c(=O)cc(-c3ccccc3)oc2c1C` as the compound, how does the IC50 (Cholinesterase) read?
A: 3820 nM

Q: What about the IC50 (Acetylcholinesterase) of the same compound?
A: 25300 nM

Q: Which results are given for `Cc1c(OCCCN2CCC(O)CC2)ccc2c(=O)cc(-c3ccccc3)oc12`?
A: IC50 (Cholinesterase): 4120 nM; IC50 (Acetylcholinesterase): 2940 nM; inhibition [1]: 21.4%

Q: Which IC50 (Cholinesterase) does the source give for `Cc1c(OCCCCCN2CCCCC2)ccc2c(=O)cc(-c3ccccc3)oc12` here?
A: 1410 nM

Q: What about the IC50 (Acetylcholinesterase) of the same compound?
A: 329 nM

Q: What about the inhibition [1] of the same compound?
A: 41.7%

Q: Which results are given for `Cc1c(OCCN2CCCC2)ccc2c(=O)cc(-c3ccccc3)oc12`?
A: IC50 (Cholinesterase): 2710 nM; IC50 (Acetylcholinesterase): 2040 nM; inhibition [1]: 42%

Q: Which IC50 (Cholinesterase) does the source give for `Cc1c(OCCCCN2CCC(O)CC2)ccc2c(=O)cc(-c3ccccc3)oc12` here?
A: > 100000 nM

Q: What about the IC50 (Acetylcholinesterase) of the same compound?
A: 607 nM

Q: And the inhibition [1]?
A: 22.1%

Q: Which IC50 (Cholinesterase) does the source give for `CCN(CC)CCCCCOc1ccc2c(=O)cc(-c3ccccc3)oc2c1C` here?
A: > 100000 nM

Q: And the IC50 (Acetylcholinesterase)?
A: 264 nM

Q: And the inhibition [1]?
A: 40.9%

Q: What does the source list for `Cc1c(OCCCCN2CCCC2)ccc2c(=O)cc(-c3ccccc3)oc12`?
A: IC50 (Cholinesterase): 5700 nM; IC50 (Acetylcholinesterase): 238 nM; inhibition [1]: 21.8%

Q: Which results are given for `Cc1c(OCCN2CCCCC2C)ccc2c(=O)cc(-c3ccccc3)oc12` (stereo unspecified)?
A: IC50 (Cholinesterase): > 100000 nM; IC50 (Acetylcholinesterase): 2100 nM; inhibition [1]: 30.5%

Q: What does the source list for `Cc1c(OCCCCN2CCCCC2C)ccc2c(=O)cc(-c3ccccc3)oc12` (stereo unspecified)?
A: IC50 (Cholinesterase): > 100000 nM; IC50 (Acetylcholinesterase): 225 nM; inhibition [1]: 37.3%

Q: What does the source list for `CCN(CC)CCCCOc1ccc2c(=O)cc(-c3ccccc3)oc2c1C`?
A: Ratio IC50 [2]: 20; inhibition [3]: Active; Ratio IC50 [4]: 2; IC50 (Cholinesterase): 4820 nM; IC50 (Acetylcholinesterase): 130 nM; Activity [5]: Active; inhibition [1]: 39%; Activity [6]: Active

Q: Which results are given for `Cc1c(OCCCN2CCCC2)ccc2c(=O)cc(-c3ccccc3)oc12`?
A: IC50 (Cholinesterase): 2780 nM; IC50 (Acetylcholinesterase): 952 nM; inhibition [1]: 27.1%

Q: What does the source list for `Cc1c(OCCCCCN2CCC(O)CC2)ccc2c(=O)cc(-c3ccccc3)oc12`?
A: IC50 (Cholinesterase): 4850 nM; IC50 (Acetylcholinesterase): 604 nM; inhibition [1]: 37.4%

Q: Which results are given for `Cc1c(OCCCCCN2CCN(C)CC2)ccc2c(=O)cc(-c3ccccc3)oc12`?
A: IC50 (Cholinesterase): 4870 nM; IC50 (Acetylcholinesterase): 1870 nM; inhibition [1]: 39.9%
